Earlier results as cited in patent US7700560B2 (University of Maryland, Baltimore County, priority 2003, dated 2010).

What was measured:
[1] = system: lung tumor cell lines NCI-H460, NCI-H226, A549, NCI-H23, DMS273, DMS114, NCI-H522; conditions: dicyclopentyl diester; cited from earlier work
[2] = system: DMS114 lung and DU145 prostate xenografts; conditions: dicyclopentyl diester; cited from earlier work

In the case of `NC(CCC(=O)NC(CSCc1ccc(Br)cc1)C(=O)NCC(=O)OC1CCCC1)C(=O)OC1CCCC1` (centres unmarked), the “inhibition of lung tumor cell lines in vitro” value [1] is listed as “effectively inhibited” and the “inhibition of DMS144 and human prostate DU145 xenografts in nude mice” value [2] is listed as “effectively inhibited”.
